Source: US20240132484A1, “BROAD SPECTRUM ANTIVIRAL COMPOUNDS TARGETING THE SKI COMPLEX” (priority 2020, published 2024)
Where “and” joins values, the source holds several entries; their conditions need not be identical. Equal entries are not always repeated. Where two headings read alike, the source gives them in different places.

Legend:
[1] = system: SARS2; assay type: cell-based, SARS-CoV-2; conditions: for Percentage Inhibition Average 1 μM / Screening data (Relative infection to DMSO controls) Average 1 μM: SARS2, 1 μM; for Screening data (Relative infection to DMSO controls) Average 1 μM / Screening data (Relative infection to DMSO controls) Average 5 μM / Screening data (Relative infection to DMSO controls) Average 10 μM / Screening data (Relative infection to DMSO controls) Average 25 μM / Screening data (Relative infection to DMSO controls) Average 50 μM / Average (relative infection to DMSO over the 5 tested concentrations): 100=DMSO control; for Percentage Inhibition Average 5 μM / Screening data (Relative infection to DMSO controls) Average 5 μM: SARS2, 5 μM; for Percentage Inhibition Average 10 μM / Screening data (Relative infection to DMSO controls) Average 10 μM: SARS2, 10 μM; for Percentage Inhibition Average 25 μM / Screening data (Relative infection to DMSO controls) Average 25 μM: SARS2, 25 μM; for Percentage Inhibition Average 50 μM / Screening data (Relative infection to DMSO controls) Average 50 μM: SARS2, 50 μM; for Average (relative infection to DMSO over the 5 tested concentrations): SARS2, average over 1 to 50 uM; for Infection Data, Average, Mean percentage infection relative to DMSO control: Average of Exp 1 (SMW491) and Exp 2 (SMW492); for Infection Data, Percentage Infection Relative to Appropriate DMSO Control: single well, avg background subtraction; for Percentage Infection Relative to Appropriate DMSO Control with Avg Background Subtraction: Nunc Celigo plates; for Infection Data, Average, Mean: average of Exp 1-2 (SMW491, SMW492)
[2] = system: cells (nuclei count); conditions: for Relative cell count to DMSO controls, Average 1 μM / Relative cell count to DMSO controls, Average 5 μM / Relative cell count to DMSO controls, Average 10 μM / Relative cell count to DMSO controls, Average 25 μM / Relative cell count to DMSO controls, Average 50 μM: toxicity data, 100=DMSO control; for Relative cell count to DMSO controls, Average (for correlation analysis): average value over the 5 tested concentrations (1 to 50 uM); for Toxicity Data, Average, Mean percentage relative to DMSO control: Average of Exp 1 (SMW491) and Exp 2 (SMW492); for Toxicity Data, Percentage Relative to Appropriate DMSO Control: single well

Cc1ccc(CN(CCN(C)C)Cc2ccc(C)s2)o1 [SILCS7]
Percentage Inhibition Average 1 μM [1]: 6.07% | Screening data (Relative infection to DMSO controls) Average 1 μM [1]: 93.93 | Percentage Inhibition Average 5 μM [1]: 7.19% | Screening data (Relative infection to DMSO controls) Average 5 μM [1]: 92.81 | Percentage Inhibition Average 10 μM [1]: 42.29% | Screening data (Relative infection to DMSO controls) Average 10 μM [1]: 57.71 | Percentage Inhibition Average 25 μM [1]: 58.04% | Screening data (Relative infection to DMSO controls) Average 25 μM [1]: 41.96 | Percentage Inhibition Average 50 μM [1]: 68.91% | Screening data (Relative infection to DMSO controls) Average 50 μM [1]: 31.09 | Average (relative infection to DMSO over the 5 tested concentrations) [1]: 63.50 | Relative cell count to DMSO controls, Average 1 μM [2]: 110.82 | Relative cell count to DMSO controls, Average 5 μM [2]: 103.66 | Relative cell count to DMSO controls, Average 10 μM [2]: 106.58 | Relative cell count to DMSO controls, Average 25 μM [2]: 103.49 | Relative cell count to DMSO controls, Average 50 μM [2]: 73.73 | Toxicity Data, Average, Mean (relative to DMSO control) ([2]; Average of Exp 1-3, 1 uM): 110.82% | Toxicity Data, Average, Mean (relative to DMSO control) ([2]; Average of Exp 1-3, 5 uM): 103.66% | Toxicity Data, Average, Mean (relative to DMSO control) ([2]; Average of Exp 1-3, 10 uM): 106.58% | Toxicity Data, Average, Mean (relative to DMSO control) ([2]; Average of Exp 1-3, 25 uM): 103.49% | Toxicity Data, Average, Mean (relative to DMSO control) ([2]; Average of Exp 1-3, 50 uM): 73.73% | Relative cell count to DMSO controls, Average (for correlation analysis) [2]: 99.66

COc1ccc(C2NC(=O)NC(C)=C2C(=O)NCc2ccccc2)cc1OC (stereo not shown) [SILCS48]
Infection Data, Average, Mean percentage infection relative to DMSO control ([1]; n=4, 1 uM): 71.69% | Infection Data, Average, Mean percentage infection relative to DMSO control ([1]; n=4, 5 uM): 75.19% | Infection Data, Average, Mean percentage infection relative to DMSO control ([1]; n=4, 10 uM): 85.09% | Infection Data, Average, Mean percentage infection relative to DMSO control ([1]; n=4, 25 uM): 100.34% | Infection Data, Average, Mean percentage infection relative to DMSO control ([1]; n=4, 50 uM): 160.04% | Infection Data, Percentage Infection Relative to Appropriate DMSO Control ([1]; Exp 1 (SMW491), 1 uM): 87.03% and 82.70% | Infection Data, Percentage Infection Relative to Appropriate DMSO Control ([1]; Exp 1 (SMW491), 5 uM): 70.35% and 83.94% | Infection Data, Percentage Infection Relative to Appropriate DMSO Control ([1]; Exp 1 (SMW491), 10 uM): 96.64% and 110.53% | Infection Data, Percentage Infection Relative to Appropriate DMSO Control ([1]; Exp 1 (SMW491), 25 uM): 102.87% and 119.89% | Infection Data, Percentage Infection Relative to Appropriate DMSO Control ([1]; Exp 1 (SMW491), 50 uM): 159.63% and 145.37% | Infection Data, Percentage Infection Relative to Appropriate DMSO Control ([1]; Exp 2 (SMW492), 1 uM): 59.24% and 57.80% | Infection Data, Percentage Infection Relative to Appropriate DMSO Control ([1]; Exp 2 (SMW492), 5 uM): 84.51% and 61.96% | Infection Data, Percentage Infection Relative to Appropriate DMSO Control ([1]; Exp 2 (SMW492), 10 uM): 49.42% and 83.79% | Infection Data, Percentage Infection Relative to Appropriate DMSO Control ([1]; Exp 2 (SMW492), 25 uM): 97.57% and 81.03% | Infection Data, Percentage Infection Relative to Appropriate DMSO Control ([1]; Exp 2 (SMW492), 50 uM): 177.82% and 157.32% | Percentage Inhibition Average 1 μM [1]: 28.31% | Screening data (Relative infection to DMSO controls) Average 1 μM [1]: 71.69 | Percentage Inhibition Average 5 μM [1]: 24.81% | Screening data (Relative infection to DMSO controls) Average 5 μM [1]: 75.19 | Percentage Inhibition Average 10 μM [1]: 14.91% | Screening data (Relative infection to DMSO controls) Average 10 μM [1]: 85.09 | Percentage Inhibition Average 25 μM [1]: −0.34% | Screening data (Relative infection to DMSO controls) Average 25 μM [1]: 100.34 | Percentage Inhibition Average 50 μM [1]: −60.04% | Screening data (Relative infection to DMSO controls) Average 50 μM [1]: 160.04 | Average (relative infection to DMSO over the 5 tested concentrations) [1]: 98.47 | Relative cell count to DMSO controls, Average 1 μM [2]: 119.19 | Relative cell count to DMSO controls, Average 5 μM [2]: 115.84 | Relative cell count to DMSO controls, Average 10 μM [2]: 107.43 | Relative cell count to DMSO controls, Average 25 μM [2]: 102.04 | Relative cell count to DMSO controls, Average 50 μM [2]: 77.81 | Toxicity Data, Average, Mean percentage relative to DMSO control ([2]; n=4, 1 uM): 119.19% | Toxicity Data, Average, Mean percentage relative to DMSO control ([2]; n=4, 5 uM): 115.84% | Toxicity Data, Average, Mean percentage relative to DMSO control ([2]; n=4, 10 uM): 107.43% | Toxicity Data, Average, Mean percentage relative to DMSO control ([2]; n=4, 25 uM): 102.04% | Toxicity Data, Average, Mean percentage relative to DMSO control ([2]; n=4, 50 uM): 77.81% | Toxicity Data, Percentage Relative to Appropriate DMSO Control ([2]; Exp 1 (SMW491), 1 uM): 112% and 102% | Toxicity Data, Percentage Relative to Appropriate DMSO Control ([2]; Exp 1 (SMW491), 5 uM): 108% and 106% | Toxicity Data, Percentage Relative to Appropriate DMSO Control ([2]; Exp 1 (SMW491), 10 uM): 86% and 88% | Toxicity Data, Percentage Relative to Appropriate DMSO Control ([2]; Exp 1 (SMW491), 25 uM): 95% and 88% | Toxicity Data, Percentage Relative to Appropriate DMSO Control ([2]; Exp 1 (SMW491), 50 uM): 79% and 77% | Toxicity Data, Percentage Relative to Appropriate DMSO Control ([2]; Exp 2 (SMW492), 1 uM): 130% and 132% | Toxicity Data, Percentage Relative to Appropriate DMSO Control ([2]; Exp 2 (SMW492), 5 uM): 115% and 135% | Toxicity Data, Percentage Relative to Appropriate DMSO Control ([2]; Exp 2 (SMW492), 10 uM): 135% and 121% | Toxicity Data, Percentage Relative to Appropriate DMSO Control ([2]; Exp 2 (SMW492), 25 uM): 109% and 116% | Toxicity Data, Percentage Relative to Appropriate DMSO Control ([2]; Exp 2 (SMW492), 50 uM): 81% and 75% | Relative cell count to DMSO controls, Average (for correlation analysis) [2]: 104.46

CN(C)CCCN(Cc1cccs1)C(=O)c1cccs1 [SILCS40]
SARS2 antiviral activity [1]: inactive | Percentage Infection Relative to Appropriate DMSO Control with Avg Background Subtraction ([1]; Exp 1 (SMW491), 1 uM): 161.72% and 144.95% | Percentage Infection Relative to Appropriate DMSO Control with Avg Background Subtraction ([1]; Exp 1 (SMW491), 5 uM): 118.41% and 120.39% | Percentage Infection Relative to Appropriate DMSO Control with Avg Background Subtraction ([1]; Exp 1 (SMW491), 10 uM): 125.55% and 160.68% | Percentage Infection Relative to Appropriate DMSO Control with Avg Background Subtraction ([1]; Exp 1 (SMW491), 25 uM): 122.15% and 145.90% | Percentage Infection Relative to Appropriate DMSO Control with Avg Background Subtraction ([1]; Exp 1 (SMW491), 50 uM): 46.53% and 56.51% | Percentage Infection Relative to Appropriate DMSO Control with Avg Background Subtraction ([1]; Exp 2 (SMW492), 1 uM): 86.70% and 77.51% | Percentage Infection Relative to Appropriate DMSO Control with Avg Background Subtraction ([1]; Exp 2 (SMW492), 5 uM): 88.04% and 68.60% | Percentage Infection Relative to Appropriate DMSO Control with Avg Background Subtraction ([1]; Exp 2 (SMW492), 10 uM): 101.31% and 73.96% | Percentage Infection Relative to Appropriate DMSO Control with Avg Background Subtraction ([1]; Exp 2 (SMW492), 25 uM): 185.38% and 112.33% | Percentage Infection Relative to Appropriate DMSO Control with Avg Background Subtraction ([1]; Exp 2 (SMW492), 50 uM): 61.71% and 43.46% | Percentage Inhibition Average 1 μM [1]: −17.72% | Screening data (Relative infection to DMSO controls) Average 1 μM [1]: 117.72 | Percentage Inhibition Average 5 μM [1]: 1.14% | Screening data (Relative infection to DMSO controls) Average 5 μM [1]: 98.86 | Percentage Inhibition Average 10 μM [1]: −15.37% | Screening data (Relative infection to DMSO controls) Average 10 μM [1]: 115.37 | Percentage Inhibition Average 25 μM [1]: −41.44% | Screening data (Relative infection to DMSO controls) Average 25 μM [1]: 141.44 | Percentage Inhibition Average 50 μM [1]: 47.95% | Screening data (Relative infection to DMSO controls) Average 50 μM [1]: 52.05 | Average (relative infection to DMSO over the 5 tested concentrations) [1]: 105.09 | Infection Data, Average, Mean ([1]; n 4, 1 uM): 117.72% | Infection Data, Average, Mean ([1]; n 4, 5 uM): 98.86% | Infection Data, Average, Mean ([1]; n 4, 10 uM): 115.37% | Infection Data, Average, Mean ([1]; n 4, 25 uM): 141.44% | Infection Data, Average, Mean ([1]; n 4, 50 uM): 52.05% | Relative cell count to DMSO controls, Average 1 μM [2]: 86.49 | Relative cell count to DMSO controls, Average 5 μM [2]: 96.33 | Relative cell count to DMSO controls, Average 10 μM [2]: 92.49 | Relative cell count to DMSO controls, Average 25 μM [2]: 83.93 | Relative cell count to DMSO controls, Average 50 μM [2]: 117.52 | Toxicity Data, Average, Mean percentage relative to DMSO control ([2]; n=4, 1 uM): 86.49% | Toxicity Data, Average, Mean percentage relative to DMSO control ([2]; n=4, 5 uM): 96.33% | Toxicity Data, Average, Mean percentage relative to DMSO control ([2]; n=4, 10 uM): 92.49% | Toxicity Data, Average, Mean percentage relative to DMSO control ([2]; n=4, 25 uM): 83.93% | Toxicity Data, Average, Mean percentage relative to DMSO control ([2]; n=4, 50 uM): 117.52% | Relative cell count to DMSO controls, Average (for correlation analysis) [2]: 95.35

CC1=C(C(=O)OC2CCCCCCC2)C(c2ccc3c(c2)OCO3)NC(=O)N1 (stereo not shown) [UMB22_5]
SARS2 antiviral activity [1]: improved activity than ring open analogs

O=C(NC1CCCCCC1)c1cn[nH]c1-c1ccc2c(c1)OCCO2 [UMB22_16]
SARS2 antiviral activity [1]: improved activity than ring open analogs
